The text below walks through data of patent US20050038058A1, “Novel compounds and methods for therapy” (Institute of Organic Chemistry and Biochemistry, priority 2001, published 2005).

The test system of one series is MT-4 cells. As to the kind of experiment: MT-4 cell toxicity (trypan blue exclusion). To be noted: reduction of cell viability; Table 2. Format: cell-based. The procedure, abridged: (§1)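 MT-4 cells (5×10^4/well) exposed to compound dilutions for 5 days at 37 °C; CC50 = concentration cutting living cells by 50%, counted microscopically with trypan blue exclusion. CEM cytostatic CC50 defined likewise, by a previously described method.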

The subject of a further series is CEM cells. As to the kind of experiment: Inhibition of CEM cell growth (cytostatic activity). It counts as cell-based. The method, boiled down: as §1
The next series has as its system HIV-2. Put plainly: Antiviral activity, HIV-2, Table 1a. It counts as cell-based.
The subject of a further series is VZV TK + YS. Put plainly: Antiviral activity, VZV TK+ YS, Table 1a. It counts as cell-based.
A further series deals with VZV TK − YS/R. As to the kind of experiment: Antiviral activity, VZV TK- YS/R, Table 1a. Format: cell-based.
The next series concerns CMV AD-169. Put plainly: Antiviral activity, CMV AD-169, Table 1a. It counts as cell-based.
For the next series, the system named is VZV TK − 07/1. Put plainly: Antiviral activity, VZV TK- 07/1, Table 1a. Format: cell-based.
For a further series, the system named is VZV TK + OKA. As to the kind of experiment: Antiviral activity, VZV TK+ OKA, Table 1a. It counts as cell-based.
In another series the test system is HSV-1 TK- VMW 1837. Put plainly: Antiviral activity, HSV-1 TK- VMW 1837, Table 1a. Format: cell-based.
For the next series, the system named is HSV-2 (G). As to the kind of experiment: Antiviral activity, HSV-2 (G), Table 1a. Format: cell-based.
The subject of another series is HSV-1 (KOS). Put plainly: Antiviral activity, HSV-1 (KOS), Table 1a. Format: cell-based.
In another series the test system is CMV Davis. As to the kind of experiment: Antiviral activity, CMV Davis, Table 1a. It counts as cell-based.
The next series has as its system MSV. As to the kind of experiment: Antiviral activity, MSV, Table 1a. Format: cell-based.
[1] abbreviates: 50% cytostatic concentration, CEM cell proliferation, Table 1.
Setting [2] is: inhibition of cell proliferation, Table 2.

Structures are written as SMILES. ≈ marks a conversion by molar mass, not a printed value.

As for `C[C@H](Cn1cnc2c(N)ncnc21)OCP(=O)(O)O` [(R)-PMPA, (R)-9-[(2-phosphonomethoxy)-propyl]adenine, reference compound], the “CC50 MT-4” value in the series with MT-4 cells came out at 72 ± 12 µg/mL (≈ 251 µM). Besides, the “CC50 (CEM)” value with CEM cells (setting [1]) came to 125 µg/mL (≈ 435 µM); with CEM cells (setting [2]), 125 ± 26 µg/mL (≈ 435 µM).

With `C[C@H](COc1cc(N)nc(N)n1)OCP(=O)(O)O` [Compound 11, 2,4-diamino-6-(R)-[2-(phosphonomethoxy)propoxy]pyrimidine], the “Antiviral Activity EC50 HIV-1” value in the series on HIV-1 turned out to be 1.9 µg/mL. Also, the “Antiviral Activity EC50 HIV-2” value in the series on HIV-2 turned out to be 1.3 µg/mL. In the series on VZV TK + YS, the “Antiviral Activity EC50 VZV TK + YS” value is 5.9 µg/mL. For the same molecule, the “Antiviral Activity EC50 VZV TK − YS/R” value with VZV TK − YS/R stood at 5.7 µg/mL. Moreover, in the series on CMV AD-169, the “Antiviral Activity EC50 CMV AD-169” value is over 50 µg/mL. In addition, the “Antiviral Activity EC50 VZV TK − 07/1” value in the series on VZV TK − 07/1 was found to be 6.3 µg/mL. Moreover, the “Antiviral Activity EC50 VZV TK + OKA” value in the series on VZV TK + OKA came out at 3.8 µg/mL. In addition, the “Antiviral Activity EC50 HSV-1 TK- VMW 1837” value in the series on HSV-1 TK- VMW 1837 worked out at 9.6 µg/mL. For the same molecule, in the series on HSV-2 (G), the “Antiviral Activity EC50 HSV-2 (G)” value is 48 µg/mL. The “Antiviral Activity EC50 HSV-1 (KOS)” value in the series with HSV-1 (KOS) amounted to 16 µg/mL. Further, the “CC50 MT-4” value in the series on MT-4 cells is on record as “≧100 μg/ml”. Further, the “CC50 for CEM cells” value in the series on CEM cells was “around 60 μg/mL”. Moreover, the “CC50 (CEM)” value came to 62 µg/mL (≈ 223 µM) in the series with CEM cells (setting [1]) and 62 ± 25 µg/mL (≈ 223 µM) with CEM cells (setting [2]). Also, in the series on CMV Davis, the “Antiviral Activity EC50 CMV Davis” value is over 50 µg/mL. Moreover, in the series on MSV, the “Antiviral Activity EC50 MSV” value came out at 0.05 µg/mL.
